The values below come from the kinase profiling compilation of Christmann-Franck et al. (2016).

TAOK1 (human), sequence (Q7L7X3 whole entry, looked up): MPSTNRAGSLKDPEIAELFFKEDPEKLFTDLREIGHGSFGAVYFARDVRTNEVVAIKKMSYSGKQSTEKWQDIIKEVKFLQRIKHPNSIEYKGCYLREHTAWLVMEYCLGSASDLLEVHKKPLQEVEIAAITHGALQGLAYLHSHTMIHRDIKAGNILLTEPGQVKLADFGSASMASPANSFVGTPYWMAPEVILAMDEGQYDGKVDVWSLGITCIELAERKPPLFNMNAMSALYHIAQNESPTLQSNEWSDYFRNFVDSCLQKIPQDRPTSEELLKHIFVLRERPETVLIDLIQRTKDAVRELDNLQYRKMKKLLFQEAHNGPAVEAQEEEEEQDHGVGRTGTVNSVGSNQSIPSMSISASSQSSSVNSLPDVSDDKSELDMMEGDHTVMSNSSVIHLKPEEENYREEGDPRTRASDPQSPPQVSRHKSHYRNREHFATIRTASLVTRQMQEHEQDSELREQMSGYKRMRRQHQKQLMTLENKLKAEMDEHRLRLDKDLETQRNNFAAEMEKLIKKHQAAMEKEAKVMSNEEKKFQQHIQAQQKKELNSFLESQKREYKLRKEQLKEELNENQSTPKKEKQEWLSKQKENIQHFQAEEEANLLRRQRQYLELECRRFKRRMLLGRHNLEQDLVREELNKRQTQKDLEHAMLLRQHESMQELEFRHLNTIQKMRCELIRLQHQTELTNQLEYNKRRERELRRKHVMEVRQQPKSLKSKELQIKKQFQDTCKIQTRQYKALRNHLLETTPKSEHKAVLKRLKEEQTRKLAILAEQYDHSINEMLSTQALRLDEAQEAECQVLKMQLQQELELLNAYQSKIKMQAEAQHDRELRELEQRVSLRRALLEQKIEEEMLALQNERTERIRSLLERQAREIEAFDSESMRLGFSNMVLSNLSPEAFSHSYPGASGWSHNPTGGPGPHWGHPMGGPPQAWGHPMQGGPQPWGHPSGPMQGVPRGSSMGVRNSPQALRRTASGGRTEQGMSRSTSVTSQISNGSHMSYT
CAMK2B (human), sequence (Q13554 whole entry, looked up): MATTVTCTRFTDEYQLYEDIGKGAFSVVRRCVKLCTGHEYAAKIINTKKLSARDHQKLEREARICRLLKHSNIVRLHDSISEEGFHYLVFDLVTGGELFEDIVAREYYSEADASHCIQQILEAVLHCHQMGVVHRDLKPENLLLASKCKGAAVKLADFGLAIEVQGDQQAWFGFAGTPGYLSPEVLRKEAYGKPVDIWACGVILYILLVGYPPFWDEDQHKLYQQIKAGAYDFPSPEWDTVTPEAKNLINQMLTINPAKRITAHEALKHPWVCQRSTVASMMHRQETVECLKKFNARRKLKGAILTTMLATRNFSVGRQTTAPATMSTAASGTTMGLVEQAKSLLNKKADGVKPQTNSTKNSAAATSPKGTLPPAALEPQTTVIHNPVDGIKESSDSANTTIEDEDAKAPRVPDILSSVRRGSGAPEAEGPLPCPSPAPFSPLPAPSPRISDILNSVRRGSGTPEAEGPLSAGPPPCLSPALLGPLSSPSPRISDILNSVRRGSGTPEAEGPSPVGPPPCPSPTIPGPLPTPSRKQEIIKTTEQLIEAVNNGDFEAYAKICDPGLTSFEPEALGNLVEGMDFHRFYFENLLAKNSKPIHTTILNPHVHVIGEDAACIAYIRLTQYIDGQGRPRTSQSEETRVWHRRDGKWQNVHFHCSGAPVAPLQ
FYN (human), sequence (P06241 whole entry, looked up): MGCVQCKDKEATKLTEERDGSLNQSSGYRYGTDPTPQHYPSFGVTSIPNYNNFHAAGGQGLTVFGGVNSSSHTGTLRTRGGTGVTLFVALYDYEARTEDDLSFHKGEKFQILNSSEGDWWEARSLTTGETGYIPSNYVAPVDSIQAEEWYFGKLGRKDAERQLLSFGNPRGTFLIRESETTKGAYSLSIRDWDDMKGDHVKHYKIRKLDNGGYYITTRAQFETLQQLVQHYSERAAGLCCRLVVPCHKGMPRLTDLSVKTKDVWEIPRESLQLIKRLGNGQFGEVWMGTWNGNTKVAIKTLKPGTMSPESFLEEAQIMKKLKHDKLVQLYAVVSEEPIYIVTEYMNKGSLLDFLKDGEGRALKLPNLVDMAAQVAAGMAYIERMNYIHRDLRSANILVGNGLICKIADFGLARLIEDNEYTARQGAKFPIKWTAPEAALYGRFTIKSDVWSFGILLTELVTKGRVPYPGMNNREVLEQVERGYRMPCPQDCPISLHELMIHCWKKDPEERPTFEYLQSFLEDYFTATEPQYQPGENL

For the first test, the target named is INSR (human) (UniProt P06213). Kind of test: radiometric filter-binding kinase assay, Kinase HotSpot. The conditions noted are these: compound 0.5 µM; ATP 10 µM.
As a reminder, the residual activity is the signal under treatment as a percentage of the control signal. For the molecule `O=C1NC(=O)/C(=C\c2ccc3nccnc3c2)S1`, the residual activity amounted to 108%.
On the same count and under the same terms, as for `COc1cc2ncc(-c3ccccc3)nc2cc1OC`, the figure is 89.1%; as for `CN([C@@H](Cc1ccc(OS(=O)(=O)c2cccc3cnccc23)cc1)C(=O)N1CCN(c2ccccc2)CC1)S(=O)(=O)c1cccc2cnccc12`, 98.8%.

For the next test, the target named is PAK3 (human) (UniProt O75914). The test is described as above. As to conditions: compound 0.5 µM; ATP 10 µM.
With `O=C1NC(=O)/C(=C\c2ccc3nccnc3c2)S1`, the residual activity was 97.4%.
In the case of `COc1cc2ncc(-c3ccccc3)nc2cc1OC`, the residual activity was 94.7%.
For the molecule `CN([C@@H](Cc1ccc(OS(=O)(=O)c2cccc3cnccc23)cc1)C(=O)N1CCN(c2ccccc2)CC1)S(=O)(=O)c1cccc2cnccc12`, the residual activity was 102%.

For the next test, the target named is MAP4K4 (human) (UniProt O95819). Described as above. As to conditions: compound 0.5 µM; ATP 10 µM.
MAP4K4 (human), sequence (O95819 whole entry, looked up): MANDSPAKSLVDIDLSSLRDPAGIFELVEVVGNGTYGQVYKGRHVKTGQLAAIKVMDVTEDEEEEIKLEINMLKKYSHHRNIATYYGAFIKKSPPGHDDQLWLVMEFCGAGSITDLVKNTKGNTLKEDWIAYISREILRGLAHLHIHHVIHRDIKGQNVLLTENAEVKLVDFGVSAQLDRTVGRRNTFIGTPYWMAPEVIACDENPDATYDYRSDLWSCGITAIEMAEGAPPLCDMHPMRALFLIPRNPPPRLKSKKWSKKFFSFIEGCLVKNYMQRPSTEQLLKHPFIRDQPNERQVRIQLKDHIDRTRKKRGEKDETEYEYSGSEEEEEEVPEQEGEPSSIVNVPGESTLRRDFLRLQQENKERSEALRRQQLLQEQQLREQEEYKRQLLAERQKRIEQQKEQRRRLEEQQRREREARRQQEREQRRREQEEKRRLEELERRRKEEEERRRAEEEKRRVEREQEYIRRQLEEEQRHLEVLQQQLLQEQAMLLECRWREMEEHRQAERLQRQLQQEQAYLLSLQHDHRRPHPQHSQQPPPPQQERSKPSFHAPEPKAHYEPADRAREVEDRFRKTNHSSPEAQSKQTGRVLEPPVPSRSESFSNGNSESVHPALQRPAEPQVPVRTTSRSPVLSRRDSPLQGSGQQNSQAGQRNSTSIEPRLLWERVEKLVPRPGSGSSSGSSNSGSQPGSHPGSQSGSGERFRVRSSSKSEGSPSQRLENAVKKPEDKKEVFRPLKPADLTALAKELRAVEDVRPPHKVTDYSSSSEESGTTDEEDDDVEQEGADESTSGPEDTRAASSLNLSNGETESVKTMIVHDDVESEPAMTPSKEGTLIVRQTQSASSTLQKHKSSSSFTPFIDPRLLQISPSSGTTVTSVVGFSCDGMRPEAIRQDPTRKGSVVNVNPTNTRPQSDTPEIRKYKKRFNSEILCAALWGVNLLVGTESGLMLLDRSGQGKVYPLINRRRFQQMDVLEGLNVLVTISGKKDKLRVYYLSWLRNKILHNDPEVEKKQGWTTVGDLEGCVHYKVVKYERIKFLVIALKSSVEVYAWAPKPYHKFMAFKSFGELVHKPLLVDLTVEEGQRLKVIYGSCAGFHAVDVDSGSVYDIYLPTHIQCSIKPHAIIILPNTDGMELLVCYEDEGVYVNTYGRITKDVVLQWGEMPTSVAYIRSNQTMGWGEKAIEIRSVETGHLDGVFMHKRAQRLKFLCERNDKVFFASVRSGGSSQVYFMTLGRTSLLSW
For `O=C1NC(=O)/C(=C\c2ccc3nccnc3c2)S1`, the residual activity is 80.9%.
The same measure, in the same setting: the figure for `COc1cc2ncc(-c3ccccc3)nc2cc1OC` is 62.1%; for `CN([C@@H](Cc1ccc(OS(=O)(=O)c2cccc3cnccc23)cc1)C(=O)N1CCN(c2ccccc2)CC1)S(=O)(=O)c1cccc2cnccc12` it is 94.8%.

Another test concerns the target CAMK2B (human) (UniProt Q13554). The description is as above. As to conditions: compound 0.5 µM; ATP 10 µM.
In the case of `O=C1NC(=O)/C(=C\c2ccc3nccnc3c2)S1`, the residual activity was 89.3%.
Take `COc1cc2ncc(-c3ccccc3)nc2cc1OC`: the residual activity was found to be 93.3%.
Same read-out and setting: as for `CN([C@@H](Cc1ccc(OS(=O)(=O)c2cccc3cnccc23)cc1)C(=O)N1CCN(c2ccccc2)CC1)S(=O)(=O)c1cccc2cnccc12`, the figure is 97.8%.

A further test deals with CDK9 CCNK (human) (UniProt O75909+P50750). The description is as above. The conditions noted are these: compound 0.5 µM; ATP 10 µM.
Turning to `O=C1NC(=O)/C(=C\c2ccc3nccnc3c2)S1`, the residual activity came to 86%.
On to `COc1cc2ncc(-c3ccccc3)nc2cc1OC`, for which the residual activity turned out to be 102%.
With `CN([C@@H](Cc1ccc(OS(=O)(=O)c2cccc3cnccc23)cc1)C(=O)N1CCN(c2ccccc2)CC1)S(=O)(=O)c1cccc2cnccc12`, the residual activity was 89.4%.

Another test addresses TAOK1 (human) (UniProt Q7L7X3). The test is described as above. The conditions noted are these: compound 0.5 µM; ATP 10 µM.
As for `O=C1NC(=O)/C(=C\c2ccc3nccnc3c2)S1`, the residual activity worked out at 82.8%.
As to `COc1cc2ncc(-c3ccccc3)nc2cc1OC`, the residual activity turned out to be 104%.
Same read-out and setting: the figure for `CN([C@@H](Cc1ccc(OS(=O)(=O)c2cccc3cnccc23)cc1)C(=O)N1CCN(c2ccccc2)CC1)S(=O)(=O)c1cccc2cnccc12` is 98.7%.

For another test, the target named is IRAK4 (human) (UniProt Q9NWZ3). The test is described as above. The conditions noted are these: compound 0.5 µM; ATP 10 µM.
For the molecule `O=C1NC(=O)/C(=C\c2ccc3nccnc3c2)S1`, the residual activity turned out to be 99.9%.
Same read-out and setting: the figure for `COc1cc2ncc(-c3ccccc3)nc2cc1OC` is 90.6%; for `CN([C@@H](Cc1ccc(OS(=O)(=O)c2cccc3cnccc23)cc1)C(=O)N1CCN(c2ccccc2)CC1)S(=O)(=O)c1cccc2cnccc12` it is 92.1%.

The next test has as its target PTK2 (human) (UniProt Q05397). Described as above. As to conditions: compound 0.5 µM; ATP 10 µM.
`O=C1NC(=O)/C(=C\c2ccc3nccnc3c2)S1`: the residual activity was found to be 96.5%.
The same measure, in the same setting: as for `COc1cc2ncc(-c3ccccc3)nc2cc1OC`, the figure is 100%.
For the molecule `CN([C@@H](Cc1ccc(OS(=O)(=O)c2cccc3cnccc23)cc1)C(=O)N1CCN(c2ccccc2)CC1)S(=O)(=O)c1cccc2cnccc12`, the residual activity was found to be 104%.

In the next test the target is CLK3 (human) (UniProt P49761). The description is as above. As to conditions: compound 0.5 µM; ATP 10 µM.
CLK3 (human), sequence (P49761 whole entry, looked up): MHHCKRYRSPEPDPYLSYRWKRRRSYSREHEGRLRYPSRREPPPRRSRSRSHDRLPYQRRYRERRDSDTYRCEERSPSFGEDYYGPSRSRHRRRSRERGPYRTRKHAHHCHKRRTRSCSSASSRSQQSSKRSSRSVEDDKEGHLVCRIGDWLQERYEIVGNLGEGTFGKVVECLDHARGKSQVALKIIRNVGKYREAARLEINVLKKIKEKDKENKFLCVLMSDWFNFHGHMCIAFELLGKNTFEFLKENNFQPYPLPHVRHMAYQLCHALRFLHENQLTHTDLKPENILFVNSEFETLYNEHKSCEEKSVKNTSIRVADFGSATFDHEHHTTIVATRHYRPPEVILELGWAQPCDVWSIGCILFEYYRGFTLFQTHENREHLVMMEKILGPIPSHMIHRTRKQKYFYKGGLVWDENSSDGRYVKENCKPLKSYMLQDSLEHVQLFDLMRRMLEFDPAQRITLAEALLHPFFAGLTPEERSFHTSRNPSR
With `O=C1NC(=O)/C(=C\c2ccc3nccnc3c2)S1`, the residual activity amounted to 80.8%.
`COc1cc2ncc(-c3ccccc3)nc2cc1OC`: the residual activity was determined as 90.1%.
On the same count and under the same terms, the figure for `CN([C@@H](Cc1ccc(OS(=O)(=O)c2cccc3cnccc23)cc1)C(=O)N1CCN(c2ccccc2)CC1)S(=O)(=O)c1cccc2cnccc12` is 103%.

A further test has as its target HIPK2 (human) (UniProt Q9H2X6). Described as above. As to conditions: compound 0.5 µM; ATP 10 µM.
Turning to `O=C1NC(=O)/C(=C\c2ccc3nccnc3c2)S1`, the residual activity amounted to 101%.
On the same count and under the same terms, the figure for `COc1cc2ncc(-c3ccccc3)nc2cc1OC` is 78.7%; for `CN([C@@H](Cc1ccc(OS(=O)(=O)c2cccc3cnccc23)cc1)C(=O)N1CCN(c2ccccc2)CC1)S(=O)(=O)c1cccc2cnccc12` it is 109%.

The target of the next test is TEC (human) (UniProt P42680). The description is as above. The conditions noted are these: compound 0.5 µM; ATP 10 µM.
TEC (human), sequence (P42680 whole entry, looked up): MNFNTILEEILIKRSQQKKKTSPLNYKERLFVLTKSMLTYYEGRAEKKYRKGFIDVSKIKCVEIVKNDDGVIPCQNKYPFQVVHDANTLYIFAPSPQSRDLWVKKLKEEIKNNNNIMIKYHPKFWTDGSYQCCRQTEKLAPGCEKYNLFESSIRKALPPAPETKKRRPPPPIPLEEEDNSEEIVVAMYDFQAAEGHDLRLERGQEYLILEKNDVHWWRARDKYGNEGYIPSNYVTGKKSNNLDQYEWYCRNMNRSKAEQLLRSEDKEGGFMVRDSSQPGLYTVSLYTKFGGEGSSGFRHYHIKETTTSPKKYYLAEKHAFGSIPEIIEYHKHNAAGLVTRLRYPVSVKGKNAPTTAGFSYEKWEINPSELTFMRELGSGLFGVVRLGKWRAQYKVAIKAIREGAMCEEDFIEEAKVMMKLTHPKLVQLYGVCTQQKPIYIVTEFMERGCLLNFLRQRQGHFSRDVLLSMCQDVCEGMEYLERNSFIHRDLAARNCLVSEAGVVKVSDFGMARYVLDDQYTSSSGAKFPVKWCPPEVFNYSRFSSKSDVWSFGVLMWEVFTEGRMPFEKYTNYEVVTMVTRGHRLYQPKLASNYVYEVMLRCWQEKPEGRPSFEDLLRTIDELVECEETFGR
As for `O=C1NC(=O)/C(=C\c2ccc3nccnc3c2)S1`, the residual activity came out at 117%.
On the same count and under the same terms, the figure for `COc1cc2ncc(-c3ccccc3)nc2cc1OC` is 164%.
The same measure, in the same setting: the figure for `CN([C@@H](Cc1ccc(OS(=O)(=O)c2cccc3cnccc23)cc1)C(=O)N1CCN(c2ccccc2)CC1)S(=O)(=O)c1cccc2cnccc12` is 98.9%.

The target in another test is RPS6KA1 KD1 KD2 (human) (UniProt Q15418). Described as above. As to conditions: compound 0.5 µM; ATP 10 µM.
Take `O=C1NC(=O)/C(=C\c2ccc3nccnc3c2)S1`: the residual activity stood at 80.7%.
Still for that read-out and setting: the figure for `COc1cc2ncc(-c3ccccc3)nc2cc1OC` is 88.4%; for `CN([C@@H](Cc1ccc(OS(=O)(=O)c2cccc3cnccc23)cc1)C(=O)N1CCN(c2ccccc2)CC1)S(=O)(=O)c1cccc2cnccc12` it is 109%.

Another test deals with STK17A (human) (UniProt Q9UEE5). The test is described as above. The conditions noted are these: compound 0.5 µM; ATP 10 µM.
`O=C1NC(=O)/C(=C\c2ccc3nccnc3c2)S1`: the residual activity was determined as 94.6%.
Take `COc1cc2ncc(-c3ccccc3)nc2cc1OC`: the residual activity was determined as 95.5%.
Consider `CN([C@@H](Cc1ccc(OS(=O)(=O)c2cccc3cnccc23)cc1)C(=O)N1CCN(c2ccccc2)CC1)S(=O)(=O)c1cccc2cnccc12`, for which the residual activity was found to be 104%.

The target in a further test is CAMK4 (human) (UniProt Q16566). Described as above. The conditions noted are these: compound 0.5 µM; ATP 10 µM.
CAMK4 (human), sequence (Q16566 whole entry, looked up): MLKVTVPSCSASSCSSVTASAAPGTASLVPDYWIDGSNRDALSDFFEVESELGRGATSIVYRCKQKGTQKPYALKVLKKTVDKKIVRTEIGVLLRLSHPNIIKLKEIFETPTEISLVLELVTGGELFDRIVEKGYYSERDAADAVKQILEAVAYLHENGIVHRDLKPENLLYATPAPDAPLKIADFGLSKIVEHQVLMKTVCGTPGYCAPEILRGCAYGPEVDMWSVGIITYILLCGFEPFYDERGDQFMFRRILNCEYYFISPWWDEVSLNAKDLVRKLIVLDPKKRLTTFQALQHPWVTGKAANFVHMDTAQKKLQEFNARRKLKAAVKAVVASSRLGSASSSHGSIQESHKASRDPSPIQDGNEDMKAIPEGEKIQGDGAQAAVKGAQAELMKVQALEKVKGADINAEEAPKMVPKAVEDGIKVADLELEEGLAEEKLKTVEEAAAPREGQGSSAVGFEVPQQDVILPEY
Turning to `O=C1NC(=O)/C(=C\c2ccc3nccnc3c2)S1`, the residual activity is 106%.
Regarding `COc1cc2ncc(-c3ccccc3)nc2cc1OC`, the residual activity came out at 95.2%.
On the same count and under the same terms, as for `CN([C@@H](Cc1ccc(OS(=O)(=O)c2cccc3cnccc23)cc1)C(=O)N1CCN(c2ccccc2)CC1)S(=O)(=O)c1cccc2cnccc12`, the figure is 102%.

The next test addresses SRMS (human) (UniProt Q9H3Y6). Described as above. As to conditions: compound 0.5 µM; ATP 10 µM.
For `O=C1NC(=O)/C(=C\c2ccc3nccnc3c2)S1`, the residual activity was 96.6%.
The same measure, in the same setting: the figure for `COc1cc2ncc(-c3ccccc3)nc2cc1OC` is 102%.
As for `CN([C@@H](Cc1ccc(OS(=O)(=O)c2cccc3cnccc23)cc1)C(=O)N1CCN(c2ccccc2)CC1)S(=O)(=O)c1cccc2cnccc12`, the residual activity was 103%.

In a further test the target is ULK1 (human) (UniProt O75385). The test is described as above. The conditions noted are these: compound 0.5 µM; ATP 10 µM.
As to `O=C1NC(=O)/C(=C\c2ccc3nccnc3c2)S1`, the residual activity worked out at 100%.
On the same count and under the same terms, the figure for `COc1cc2ncc(-c3ccccc3)nc2cc1OC` is 84.5%.
On the same count and under the same terms, as for `CN([C@@H](Cc1ccc(OS(=O)(=O)c2cccc3cnccc23)cc1)C(=O)N1CCN(c2ccccc2)CC1)S(=O)(=O)c1cccc2cnccc12`, the figure is 101%.

In a further test the target is PTK2B (human) (UniProt Q14289). The description is as above. As to conditions: compound 0.5 µM; ATP 10 µM.
For the molecule `O=C1NC(=O)/C(=C\c2ccc3nccnc3c2)S1`, the residual activity was 106%.
For the molecule `COc1cc2ncc(-c3ccccc3)nc2cc1OC`, the residual activity was 85.9%.
Still for that read-out and setting: as for `CN([C@@H](Cc1ccc(OS(=O)(=O)c2cccc3cnccc23)cc1)C(=O)N1CCN(c2ccccc2)CC1)S(=O)(=O)c1cccc2cnccc12`, the figure is 103%.

The target in the next test is PASK (human) (UniProt Q96RG2). Described as above. As to conditions: compound 0.5 µM; ATP 10 µM.
With `O=C1NC(=O)/C(=C\c2ccc3nccnc3c2)S1`, the residual activity was 87.7%.
Still for that read-out and setting: the figure for `COc1cc2ncc(-c3ccccc3)nc2cc1OC` is 98.9%.
Regarding `CN([C@@H](Cc1ccc(OS(=O)(=O)c2cccc3cnccc23)cc1)C(=O)N1CCN(c2ccccc2)CC1)S(=O)(=O)c1cccc2cnccc12`, the residual activity amounted to 103%.

A further test concerns the target FYN (human) (UniProt P06241). The description is as above. As to conditions: compound 0.5 µM; ATP 10 µM.
On to `O=C1NC(=O)/C(=C\c2ccc3nccnc3c2)S1`, for which the residual activity turned out to be 95.3%.
As to `COc1cc2ncc(-c3ccccc3)nc2cc1OC`, the residual activity is 100%.
On to `CN([C@@H](Cc1ccc(OS(=O)(=O)c2cccc3cnccc23)cc1)C(=O)N1CCN(c2ccccc2)CC1)S(=O)(=O)c1cccc2cnccc12`, for which the residual activity amounted to 101%.

A further test deals with MST1R (human) (UniProt Q04912). The test is described as above. The conditions noted are these: compound 0.5 µM; ATP 10 µM.
Regarding `O=C1NC(=O)/C(=C\c2ccc3nccnc3c2)S1`, the residual activity came out at 97.8%.
The same measure, in the same setting: the figure for `COc1cc2ncc(-c3ccccc3)nc2cc1OC` is 84.2%.
On to `CN([C@@H](Cc1ccc(OS(=O)(=O)c2cccc3cnccc23)cc1)C(=O)N1CCN(c2ccccc2)CC1)S(=O)(=O)c1cccc2cnccc12`, for which the residual activity amounted to 94.4%.

A further test deals with TNK2 (human) (UniProt Q07912). The test is described as above. As to conditions: compound 0.5 µM; ATP 10 µM.
Consider `O=C1NC(=O)/C(=C\c2ccc3nccnc3c2)S1`, for which the residual activity is 91.4%.
Still for that read-out and setting: the figure for `COc1cc2ncc(-c3ccccc3)nc2cc1OC` is 93.2%.
Turning to `CN([C@@H](Cc1ccc(OS(=O)(=O)c2cccc3cnccc23)cc1)C(=O)N1CCN(c2ccccc2)CC1)S(=O)(=O)c1cccc2cnccc12`, the residual activity came to 94.8%.
